Publication PMC9057582, “HIF inhibitor 32-134D eradicates murine hepatocellular carcinoma in combination with anti-PD1 therapy” (The Journal of Clinical Investigation, 2022)
Read-outs that look alike come from different tables or passages of the source. Where a SMILES comes first, the peptide text is derived from it. The star is where a group is joined. Cbz = O=C(OCc1ccccc1)*

Key:
[1] = system: HIF transcriptional activity; assay: HIF-dependent luciferase reporter assay (FLuc/RLuc ratio) in Hep3B-c1 cells; assay type: cell-based; conditions: Homo sapiens, 1% O2, 24 hours, read-out: IC50, inhibition of HIF-dependent reporter gene expression
Excerpt: The NCI CellMiner database contains expression data for over 25,000 mRNAs in 60 human cancer cell lines that have been exposed to more than 20,000 chemical compounds ([49]). We searched CellMiner for a compound that induced changes in gene expression that were highly correlated with those induced by acriflavine, but which was structurally unrelated to acriflavine. Compounds that satisfied the above criteria were identified and subsequently analyzed in Hep3B-c1 cells ([50]), which are stably transfected with HIF-dependent reporter plasmid p2.1, in which firefly luciferase (FLuc) coding sequences are located downstream from a hypoxia-response element (HRE) and a basal SV40 promoter; and control reporter pSVR, in which Renilla luciferase (RLuc) coding sequences are downstream of the basal SV40 promoter only (Figure 1A). The FLuc/RLuc ratio in cells exposed to 1% O2 for 24 hours is a specific measure of HIF-dependent gene expression.
Figure 1 Identification of HIF inhibitors. (A) Hep3B-c1 cells were stably transfected with firefly luciferase (FLuc) reporter p2.1, which contains a hypoxia-response element (HRE), and Renilla luciferase (RLuc) reporter pSVR. (B) Hep3B-c1 cells were incubated with vehicle (Veh; 0.1% DMSO; blue bars) or 10 μM 32-134D (red bars) at 20% O2 (n = 6) or 1% O2 (n = 12) for 24 hours. Cell lysates were assayed for Fluc/Rluc activity (mean ± SEM); *P < 0.05 versus vehicle (χ^2 test). (C) Chemical structures and IC50 values for HIF inhibitors. (D and E) Hep3B cells were exposed to 20% O2 with vehicle, or 1% O2 with vehicle (blue bar), 32-134D (red bars), 33-063 (green bars), or PT2385 (brown bars) for 24 hours and CA9 (D) and EPO (E) mRNAs were quantified by RT-qPCR. […] (F) Hep3B cells were exposed to 20% or 1% O2 in the presence of vehicle or 1% O2 in the presence of 5 μM 32-134D (n = 3 each) for 24 hours. […]
Hep3B-c1 cells ([50]) were seeded on 24-well plates. […] FLuc/RLuc ratios were determined using the Dual Luciferase Reporter Assay System (Supplemental Table 6) and the VICTOR Nivo plate reader (PerkinElmer).

[2] = system: HIF target genes in Hep3B cells; assay: RT-qPCR of endogenous HIF target gene expression in Hep3B cells; assay type: cell-based, human; conditions: Hep3B cells, 1% O2, 24 hours
Excerpt: Based on this hit, we synthesized analogs in which either halogen substitutions to the indole groups were altered or the central thiazole was replaced by imidazole, isoxazole, oxadiazole, oxazole, pyrazinone, pyridazine, pyrazine, pyrazole, pyridine, thiadiazole, triazine, or triazole. […] We focused on analyzing the effect of the bis-bromoindole thiazole 32-134D and the bis-indole thiadiazole 33-063 on endogenous HIF target gene expression in Hep3B cells. […] For comparison, we tested the effect of PT2385, which inhibited EPO, NDRG1, ANGPTL4, and VEGFA expression but had no effect on CA9, which is consistent with its HIF-2–selective mechanism of action ([44]). None of the compounds had any effect on RPL13A expression, which is neither induced by hypoxia nor regulated by HIFs (Supplemental Figure 2D).
Human Hep3B and mouse Hepa1-6 cells were purchased from ATCC and grown in high-glucose (4.5 mg/mL) Dulbecco’s modified Eagle’s medium supplemented with 10% (vol/vol) fetal bovine serum and 1% penicillin/streptomycin at 37°C in a 5% CO2/95% air incubator (Supplemental Table 6). Human cell line identity was authenticated by analysis of short tandem repeats, and all cell lines were maintained mycoplasma free, using PCR-based assays conducted at the Johns Hopkins University Genetic Resources Core Facility (JHU GRCF). Cells were subjected to hypoxia in a controlled atmosphere chamber (PLAS Labs) with ambient gas mixture containing 1% O2 and 5% CO2.
(§1) RNA was extracted using TRIzol Reagent. Quantitative real-time PCR was conducted using SYBR Green PCR Master Mix and reactions were run using a Bio-Rad thermal cycler. Primer sequences and reagent sources are listed in Supplemental Table 5. The mRNA expression of target genes was normalized to the expression of 18S rRNA and the fold change (FC) was calculated based on the threshold cycle (Ct) as FC = 2^–Δ(ΔCt), where ΔCt = Cttarget gene – Ct18S rRNA and Δ(ΔCt) = ΔCttreatment – ΔCtcontrol. For RNA-seq, total RNA was isolated and treated with DNase (Qiagen). The JHU GRCF High-Throughput Sequencing facility prepared libraries and performed RNA-seq. The RNA-seq data were processed and interpreted using Genialis Expressions software (https://www.genialis.com/expressions/). An automated data analysis pipeline run in the Genialis platform consisted of the following: Sequence quality checks were performed on raw and trimmed reads with FastQC. Bbduk was used to trim adapters and filter out poor quality reads. Trimmed reads were then mapped to the STAR index (ENSEMBL 100) reference genome using the STAR ([93]) aligner. Gene expression levels were quantified with featureCounts ([94]), and differential gene expression analyses were performed with DESeq2 ([95]). […] Differential expression was determined with an FDR of less than 0.05 and mRNA FC of greater than 1.5 to identify hypoxia-induced genes and genes inhibited by 32-134D. Data used in this study have been deposited in the NCBI Gene Expression Omnibus database (GEO GSE195997).
Supplemental Figure 2. Effect of 32-134D on gene expression in Hep3B cells. (A-D) Hep3B cells were exposed to 20% O2 in the presence of vehicle (first bar; no fill) or 1% O2 in the presence of: vehicle (blue bar) or the indicated concentration of 32-134D (bars with red fill) or 33-063 (bars with green fill), or PT2385 (bars with brown fill) for 24 hours and the indicated mRNAs were quantified by reverse transcription and quantitative real-time PCR (qPCR). Data are presented as mean + SEM (n = 3). *p < 0.05 vs white; **p < 0.01 vs blue (ANOVA with Bonferroni post-test). […]
(G-H) Analysis of HIF-1a (G) and HIF-2a (H) […]
mRNA expression in Hep3B cells exposed to vehicle or 32-134D at 20% or 1% O2 for 24

[3] = system: Hepa1-6 mouse HCC cells; assay: RT-qPCR of hypoxia-induced gene expression in Hepa1-6 cells; assay type: cell-based; conditions: Hepa1-6, 1% O2, 24 hours
Protocol: Next, we analyzed Hepa1-6, which is a mouse HCC cell line. […] CXCL1, IL-6, and IL-10 were not induced by hypoxia, whereas hypoxia-induced IL-22 expression was inhibited by 32-134D (P < 0.05; Figure 3C).
Figure 3 Effect of 32-134D treatment on hypoxia-induced gene expression in Hepa1-6 cells. (A–C) Cells were exposed to 20% O2 and vehicle (white bars), 1% O2 and vehicle (blue bars), or 1% O2 and 32-134D (red bars) for 24 hours and mRNAs were quantified by RT-qPCR and normalized to white (mean ± SEM, n = 4). *P < 0.05 versus white; ^#P < 0.05 versus blue (ANOVA with Bonferroni’s post hoc test).
as §1
Supplemental Figure 7. Effect of 32-134D on gene expression in Hepa1-6 cells. Cells were exposed to 20% O2 and vehicle (white bar) or 1% O2 and vehicle (blue bar), 2.5-10 […]
for 24 hours and mRNAs were quantified by RT-qPCR and normalized to white (mean + SEM, n = 4). *p < 0.05 vs white; #p < 0.05 vs blue (ANOVA with Bonferroni post-test).
(1 picture or pasted object on this page, not shown here)

[4] = cited from earlier work
[5] = system: HIF-1, HIF-2 and p300 recruitment to HREs; assay: ChIP-qPCR of HRE occupancy in Hep3B cells; assay type: cell-based, human; conditions: 16 hours, 5 µM 32-134D or 10 µM PT2385
Protocol: Coadministration of the proteasome inhibitor MG-132 blocked the effect of 32-134D on HIF-1α protein levels (Figure 1H). […] Taken together, the results presented in Figure 1 and Supplemental Figures 1–3 indicate that 32-134D induces HIF-α subunit degradation, thereby inhibiting activation of HIF-1 and HIF-2 target gene transcription.
Cells were seeded overnight and then exposed to 20% or 1% O2 in the presence of compound or vehicle for 16 hours. Protein was cross-linked to DNA by addition of 37% formaldehyde to culture medium for 10 minutes at 37°C and quenched by addition of 0.1 M glycine. Cells were washed with and collected in 5 mL of cold PBS containing PIs. Cells were pelleted and resuspended in 200 μL of SDS lysis buffer (50 mM Tris-HCl [pH 8.1], 10 mM EDTA, 1% SDS) containing PIs and incubated on ice for 10 minutes. Lysates were sonicated to produce DNA fragments ranging from 200 to 900 bp and centrifuged for 10 minutes at 4°C. Supernatants were collected and diluted 10-fold with dilution buffer (16.7 mM Tris-HCl [pH 8.1], 167 mM NaCl, 1.2 mM EDTA, 0.01% SDS, 1.1% Triton X-100) with PIs, precleared with 20 μL of salmon sperm DNA/protein A agarose slurry, and a 20-μL aliquot was reserved as input control. Antibody (2 μg; see Supplemental Table 6) was added and samples were rotated overnight at 4°C. Immune complexes were precipitated with 50 μL of salmon sperm DNA/protein A agarose slurry. Pelleted beads were washed serially using low-salt wash buffer (20 mM Tris-HCl [pH 8.1], 150 mM NaCl, 2 mM EDTA, 0.1% SDS, 1% Triton X-100); high-salt wash buffer (20 mM Tris-HCl [pH 8.1], 500 mM NaCl, 2 mM EDTA, 0.1% SDS, 1% Triton X-100); LiCl wash buffer (10 mM Tris-HCl [pH 8.1], 0.25 M LiCl, 1% Nonidet P-40, 1% deoxycholate, 1 mM EDTA); and TE buffer (10 mM Tris-HCl [pH 8.1], 1 mM EDTA). Elution buffer (1% SDS, 0.1 M NaHCO3) was added and eluates were heated at 65°C overnight to reverse cross-linking. Eluates were treated with proteinase K for 1 hour at 45°C and DNA was purified by extraction in phenol/chloroform/isoamyl alcohol (25:24:1, v/v/v) and isopropanol precipitation. […]

[6] = system: HIF-1α and HIF-2α protein; assay: Immunoblot of nuclear extracts of Hep3B cells; assay type: cell-based, human; conditions: 5 μM MG132 during last 8 hours, 5 μM 32-134D
Protocol: Figure 1 Identification of HIF inhibitors. (A) Hep3B-c1 cells were stably transfected with firefly luciferase (FLuc) reporter p2.1, which contains a hypoxia-response element (HRE), and Renilla luciferase (RLuc) reporter pSVR. (B) Hep3B-c1 cells were incubated with vehicle (Veh; 0.1% DMSO; blue bars) or 10 μM 32-134D (red bars) at 20% O2 (n = 6) or 1% O2 (n = 12) for 24 hours. Cell lysates were assayed for Fluc/Rluc activity (mean ± SEM); *P < 0.05 versus vehicle (χ^2 test). (C) Chemical structures and IC50 values for HIF inhibitors. (D and E) Hep3B cells were exposed to 20% O2 with vehicle, or 1% O2 with vehicle (blue bar), 32-134D (red bars), 33-063 (green bars), or PT2385 (brown bars) for 24 hours and CA9 (D) and EPO (E) mRNAs were quantified by RT-qPCR. […] (F) Hep3B cells were exposed to 20% or 1% O2 in the presence of vehicle or 1% O2 in the presence of 5 μM 32-134D (n = 3 each) for 24 hours. RNA sequencing identified genes with hypoxia-induced expression (blue circle) and genes that were inhibited by 32-134D (orange circle), based on FDR < 0.05 and fold change > 1.5. (G) Hep3B cells were exposed to 20% or 1% O2 for 24 hours in the presence of vehicle or 5 μM 32-134D, nuclear extracts were prepared, and immunoblot assays were performed. […]

[7] = von Hippel-Lindau syndrome patients

Brc1ccc2c(-c3nc(-c4c[nH]c5ccc(Br)cc45)cs3)c[nH]c2c1 [Compound 11-88, reference compound]
IC50 [1]: 2900 nM

c1ccc2c(-c3nsc(-c4c[nH]c5ccccc45)n3)c[nH]c2c1 [Compound 33-063]
IC50 [1]: 2200 nM
hypoxia-induced ANGPTL4, VEGFA, NDRG1 and EPO mRNA expression [2]: significantly inhibited
hypoxia-induced CA9 mRNA expression (activated by HIF-1 only) [2]: significantly inhibited
RPL13A mRNA expression [3]: no effect
hypoxia-induced ANGPTL4, EPO, PGF, and VEGFA mRNA expression ([3]; 2.5-10 µM): significant dose-dependent inhibition

CS(=O)(=O)c1ccc(Oc2cc(F)cc(C#N)c2)c2c1[C@H](O)C(F)(F)C2 [PT2385, reference compound]
hypoxia-induced ANGPTL4, VEGFA, NDRG1 and EPO mRNA expression [2]: inhibited
hypoxia-induced CA9 mRNA expression (activated by HIF-1 only) [2]: no effect
ANGPTL4, PGF, and VEGFA mRNA expression, potency compared with 32-134D and 33-063 ([3]; 5-10 µM): less potent inhibitor
patients with grade 3 anemia ([4]; phase I trial): 10%
hypoxia-induced recruitment of HIFs and p300 to EPO and ANGPTL4 HREs [5]: inhibited

CC(C)C[C@@H](C=O)NC(=O)[C@H](CC(C)C)NC(=O)[C@H](CC(C)C)NC(=O)OCc1ccccc1 [MG-132, reference compound] (Cbz-Leu-Leu-Leu-aldehyde)
effect of 32-134D on HIF-1α protein levels on coadministration [6]: blocked

CS(=O)(=O)c1ccc(Oc2cc(F)cc(C#N)c2)c2c1[C@H](O)[C@H](F)[C@@H]2F [belzutifan/PT2977]
patients with decreased blood hemoglobin levels [4, 7]: 90%
patients with grade 3 anemia [4, 7]: 7%
